Laboratory results reported in patent US20230002389A1, “ADENINE ANALOGS, PRODRUGS, DERIVATIVES, COMPOSITIONS AND USES THEREOF” (priority 2021, published 2023).
“And” between values parts separate entries of the source, which are not always exact repeats. Identical values can stand only once. Like-named read-outs stand apart in the source and are kept apart here. Values belong to the compound of their own block, whether it stands above or below them.

Key:
Homer 1a = assay: Quantitative real-time PCR analysis of brain tissue after oral gavage of T1-1; assay type: in vivo, Male CD1 mice; settings: PO(2 h); for % Vehicle Mean: group mean of 3 mice; for % Vehicle Average / % Vehicle n = 1 / % Vehicle n = 2 / Relative mRNA expression (2^(−ΔCt)) Average / Relative mRNA expression(2^(−ΔCt)) n = 1 / Relative mRNA expression(2^(−ΔCt)) n = 2: individual mice M31-M33
Procedure: Quantitative Real-Time PCR Analysis
Male CD1 mice were administered vehicle and test compound (T1-1) by oral gavage. After 2 hours, the were decapitated, and their brain samples were collected. Total RNA from the brain tissue were isolated using […], RNA integrity was confirmed, and the concentration was quantified by measuring the optical density. Reverse transcription was performed (Invitrogen) for cDNA synthesis according to the manufacturer's instructions. Real-time qPCR was performed on Real-Time PCR System using SYBR Green. The amplification reactions were performed as per the supplier's protocol.

[1] = Pharmacokinetic analysis of T1-1 as a prodrug of MRS5474: plasma PK in mice after i.v. and p.o. dosing; assay type: in vivo, Male CD-1 mice; design: AUClast/D: unit not given here; settings: CD-1 mice; for MRT inf: read-out: MRTInf_obs
Procedure: Pharmacokinetic Analysis of Compound T1-1 for Determination Utility as a Prodrug of MRS5474:
The dosing formulation (for i.v.) of T1-1 for mouse PK studies were prepared as 0.27 mg/mL solution of 10% DMSO+50% PEG400+40% WATER (Dissolved 1.19 mg of T1-1 in 0.441 mL of DMSO with vortexing and sonication, then added 2.204 mL of PEG400 and 1.763 mL of H2O with vortexing to obtain a solution). The dosing formulation (for p.o.) of T1-1 for mouse PK studies were prepared 2.71 mg/mL solution of 10% DMSO+50% PEG400+40% WATER (Dissolved 10.17 mg of in 0.375 mL of DMSO with vortexing and sonication, then added 1.876 mL […] of PEG400 and 1.501 mL of H2O with vortexing to obtain a solution.)
Animals: Male CD-1 mice (6-8 weeks of age), weighing 20-22 g; all animals were allowed to acclimate to this environment for one week prior to experimental manipulations.
Study Design: Study design The CD1 mice were given a single dose of T1-1 by bodyweight via intravenous (i.v.), or via oral gavage (p.o) administration. The blood and brain tissue samples were collected at intervals (h) of 0, 0.5, 1, 2, 4, 8, and 24. (n=3, each time point).
Plasma Sample Preparation: Approximately 0.3 mL blood will be collected at each time point. After collecting the blood at each time point, add 250 to 300 μL of the blood sample to Eppendorf tube containing EDTA solution+10 μL of inhibitor stock and vortexed for 15 minutes and then centrifugation at 4000 g for 5 minutes in a 4° C. centrifuge to obtain plasma.
The desired serial concentrations of working solutions were achieved by diluting a stock solution of the analyte with 50% acetonitiile in water solution. 5 μL of working solutions (5, 10, 20, 50, 100, 500, 1000, 5000, 10000 ng/mL) were added to 50 μL of the blank CD1 Mouse plasma to achieve calibration standards of 0.5-1000 ng/mL (0.5, 1, 2, 5, 10, 50, 100, 500, 1000 ng/mL) in a total volume of 55 μL. Five quality control samples at 1 ng/mL, 2 ng/mL, 5 ng/mL, 50 ng/mL, and 800 ng/mL for plasma were prepared independently of those used for the calibration curves. These QC samples were prepared on the day of analysis in the same way as calibration standards. 55 μL standards, 55 μL QC samples and 55 unknown samples (50 μL plasma with 5 μL blank solution) were added to 200 μL of acetonitrile containing IS mixture for precipitating protein respectively. Then the samples were vortexed for 30 s. After centrifugation at 4 degree Celsius, 3900 rpm for 15 min, the supernatant was diluted 3 times with water. 1 μL of diluted supernatant was injected into the LC/MS/MS system for quantitative analysis using (Shimadzu-DGU-20A5 integrated with AB AP15500 LCMS/MS instrument) with to determine plasma concentrations of T1-1 and the metabolite (parent compound) MRA5474. The data were analyzed for test article T1-1 and the metabolite (parent compound) MRA5474 for PK profile.
The mobile phase consisted of acetonitrile and water mixtures, solution A: 5% acetonitrile (0.1% formic acid) and solution B: 95% acetonitrile (0.1% formic acid) with gradient elution from 90 to 10% solution A over 1.71 min. The flow rate was 0.7 mL/min. YMC Triart C18 5 μm (50×2.1 mm) column was used for the separation of the sample components.
Results: Summary of IV and PO of Plasma Pharmacokinetic Parameters

[2] = IV(plasma), T1-1 dosed 1.35 mg/kg
[3] = IV(plasma), T1-1 dosed 1.35 mg/kg, analyte = label
[4] = PO(plasma), T1-1 dosed 13.55 mg/kg
[5] = male, mouse, IV(plasma), T1-1 dosed 1.35 mg/kg, analyte = label
[6] = male, mouse, IV(plasma), T1-1 dosed 1.35 mg/kg, analyte = label (T1-1 or metabolite MRS5474)
[7] = male, mouse, PO(plasma), T1-1 dosed 13.55 mg/kg, analyte = label

AUClast/D [1, 2]: 289.77 | Vss_obs [1, 2]: 1.57 L/kg | AUC_% Extrap_obs [1, 3]: 0.93% | Cl_obs [1, 3]: 56.98 mL/min/kg | AUClast/D [1, 4]: 34.47 | F [1, 4]: 11.90% | AUC(0-inf) [1, 5]: 395 ng·h/mL | AUC(0-t) [1, 5]: 391 ng·h/mL | C0 [1, 5]: 613 ng/mL | half-life [1, 6]: 0.29 h | MRT inf [1, 5]: 0.46 h | AUC(0-t) [1, 7]: 467 ng·h/mL | Cmax [1, 7]: 132 ng/mL | Tmax [1, 7]: 0.5 h
SMILES: O=C(NCN(c1nc(Cl)nc2c1ncn2[C@H]1[C@H](O)[C@H](O)[C@@H]2C[C@@H]21)C(C1CC1)C1CC1)c1ccccc1 [Compound T1-1, N-(((2-chloro-9-((1S,2R,3S,4R,5R)-3,4-dihydroxybicyclo [3.1.0]hexan-2-yl)-9H-purin-6-yl) (dicyclopropylmethyl)amino)methyl) benzamide]
% Vehicle Mean (Homer 1a; Homer 1a mRNA vs Actin): 112.74% | % Vehicle Average (Homer 1a; Homer 1a mRNA vs Actin): 131.98% and 104.88% and 101.37% | % Vehicle n = 1 (Homer 1a; Homer 1a mRNA vs Actin): 123.98% and 96.37% and 100.64% | % Vehicle n = 2 (Homer 1a; Homer 1a mRNA vs Actin): 139.98% and 113.39% and 102.10% | % Vehicle Mean (Homer 1a; Homer 1a mRNA vs GAPDH): 66.54% | % Vehicle Average (Homer 1a; Homer 1a mRNA vs GAPDH): 75.27% and 51.17% and 73.18% | % Vehicle n = 1 (Homer 1a; Homer 1a mRNA vs GAPDH): 72.27% and 49.10% and 72.10% | % Vehicle n = 2 (Homer 1a; Homer 1a mRNA vs GAPDH): 78.27% and 53.24% and 74.26% | Relative mRNA expression (2^(−ΔCt)) Average (Homer 1a; Homer 1a vs Actin): 0.51 and 0.41 and 0.40 | Relative mRNA expression(2^(−ΔCt)) n = 1 (Homer 1a; Homer 1a vs Actin): 0.48 and 0.38 and 0.39 | Relative mRNA expression(2^(−ΔCt)) n = 2 (Homer 1a; Homer 1a vs Actin): 0.55 and 0.44 and 0.40 | Relative mRNA expression (2^(−ΔCt)) Average (Homer 1a; Homer 1a vs GAPDH): 0.1187 and 0.0807 and 0.1154 | Relative mRNA expression(2^(−ΔCt)) n = 1 (Homer 1a; Homer 1a vs GAPDH): 0.1140 and 0.0774 and 0.1137 | Relative mRNA expression(2^(−ΔCt)) n = 2 (Homer 1a; Homer 1a vs GAPDH): 0.1234 and 0.0840 and 0.1171

AUC_% Extrap_obs [1, 3]: 2.62% | AUC_% Extrap_obs ([1]; PO(plasma), T1-1 dosed 13.55 mg/kg, analyte = label): 0.08% | AUC(0-inf) [1, 5]: 321 ng·h/mL | AUC(0-t) [1, 5]: 313 ng·h/mL | Cmax [1, 5]: 127 ng/mL | Tmax [1, 5]: 1 h | half-life [1, 6]: 1.55 h | MRT inf [1, 5]: 2.32 h | AUC(0-inf) [1, 7]: 6990 ng·h/mL | AUC(0-t) [1, 7]: 6990 ng·h/mL | Cmax [1, 7]: 522 ng/mL | Tmax [1, 7]: 1 h | half-life [1, 7]: 2.32 h | MRT inf [1, 7]: 6.36 h
SMILES: O[C@@H]1[C@H](O)[C@@H]2C[C@@H]2[C@H]1n1cnc2c(NC(C3CC3)C3CC3)nc(Cl)nc21 [MRS5474, (1R,2R,3S,4R,5S)-4-(2-chloro-6-((dicyclopropylmethyl)amino)-9H-purin-9-yl) bicyclo [3.1.0] hexane-2,3-diol, reference compound]
